Experimental data: patent publication US10519134B2, “Pyrazole compounds and methods of making and using same” (Lundbeck La Jolla Research Center, Inc., priority 2015, dated 2019)

Tests used:
FAAH = molecular target: T1, FAAH (Mus musculus, UniProt O08914); test: In vitro competitive activity-based protein profiling (mouse), FAAH gel band; format: biochemical; details: for IC50: mouse; for inhibition at 1 µM: read-out: FAAH % inh. 1 μM
T1 construct: Proteomes (mouse brain membrane fraction or cell lysates); from tissue; host or cells: mouse brain membrane fraction (or cell lysates)
T1 sequence (O08914 1-579): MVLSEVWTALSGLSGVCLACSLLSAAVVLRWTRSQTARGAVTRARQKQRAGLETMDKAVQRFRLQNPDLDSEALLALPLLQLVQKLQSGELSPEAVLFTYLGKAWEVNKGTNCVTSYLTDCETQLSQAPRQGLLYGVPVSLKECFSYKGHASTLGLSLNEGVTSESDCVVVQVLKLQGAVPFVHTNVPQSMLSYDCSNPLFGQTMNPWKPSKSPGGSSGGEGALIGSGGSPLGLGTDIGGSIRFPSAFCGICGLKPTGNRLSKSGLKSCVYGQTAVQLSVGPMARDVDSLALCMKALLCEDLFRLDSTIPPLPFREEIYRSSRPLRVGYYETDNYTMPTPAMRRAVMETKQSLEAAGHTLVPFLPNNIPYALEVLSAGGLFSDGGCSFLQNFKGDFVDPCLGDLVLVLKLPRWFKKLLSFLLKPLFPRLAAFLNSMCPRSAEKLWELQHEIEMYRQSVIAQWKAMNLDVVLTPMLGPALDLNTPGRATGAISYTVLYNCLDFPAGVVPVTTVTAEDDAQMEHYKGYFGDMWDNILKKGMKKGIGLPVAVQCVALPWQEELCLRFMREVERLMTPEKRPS
Procedure, shortened: (§1)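 Competitive ABPP: inhibitors at varying concentrations were given 30 min at 37 °C with mouse brain membranes or cell lysates (1.0 mg/mL total protein) before 30 min labelling by FP-Rh or HT-01 (stock 50 μM in DMSO). Residual hydrolase activity read as in-gel fluorescence of MAGL and FAAH bands.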

MAGL = molecular target: T2, MAGL (Mus musculus, UniProt O35678); test: In vitro competitive activity-based protein profiling (mouse), MAGL gel band; format: biochemical; details: for IC50: mouse; for inhibition at 1 µM: read-out: MAGL % inh. 1 μM
T2 construct: Proteomes (mouse brain membrane fraction or cell lysates); from tissue; host or cells: mouse brain membrane fraction (or cell lysates)
T2 sequence (O35678 1-303): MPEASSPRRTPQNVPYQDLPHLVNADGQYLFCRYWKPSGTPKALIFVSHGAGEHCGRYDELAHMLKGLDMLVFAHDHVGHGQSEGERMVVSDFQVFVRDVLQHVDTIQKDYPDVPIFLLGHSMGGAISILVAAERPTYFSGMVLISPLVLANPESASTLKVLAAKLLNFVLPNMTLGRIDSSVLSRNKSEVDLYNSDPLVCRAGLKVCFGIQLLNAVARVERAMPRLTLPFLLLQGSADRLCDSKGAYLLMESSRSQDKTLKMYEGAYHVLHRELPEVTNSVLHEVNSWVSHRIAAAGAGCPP
Procedure, shortened: as §1

How did the IC50 (FAAH) turn out when CC(=O)Nc1ccn(C(=O)N2CCC3(CCCN3Cc3ccc(C(F)(F)F)cc3N3CCCC3)CC2)n1 [Example 8, N-(1-(1-(2-(pyrrolidin-1-yl)-4-(trifluoromethyl)benzyl)-1,8-diazaspiro[4.5]decane-8-carbonyl)-1H-pyrazol-3-yl)acetamide] was run?
The IC50 was 1000 to 10000 nM.

And the inhibition at 1 µM (FAAH)?
Its inhibition at 1 µM is 0 to 25%.

What about the IC50 (MAGL) of the same molecule?
Its IC50 is no more than 100 nM.

And the inhibition at 1 µM (MAGL)?
Its inhibition at 1 µM is no less than 75%.

For CS(=O)(=O)Nc1ccn(C(=O)N2CCN(Cc3ccc(Cl)c(C4CCCC4)c3)CC2)n1 [Example 272, N-(1-(4-(4-chloro-3-cyclopentylbenzyl)piperazine-1-carbonyl)-1H-pyrazol-3-yl) methanesulfonamide], which inhibition at 1 µM (FAAH) is on record?
Its inhibition at 1 µM is 0 to 25%.

What about the inhibition at 1 µM (MAGL) of the same molecule?
Its inhibition at 1 µM is no less than 75%.

Which IC50 (FAAH) does the source give for CC(=O)N1CCN(c2cc(CN3CCN(C(=O)n4ccc(NS(C)(=O)=O)n4)CC3)ccc2Cl)CC1 [Example 284, N-(1-(4-(3-(4-acetylpiperazin-1-yl)-4-chlorobenzyl)piperazine-1-carbonyl)-1H-pyrazol-3-yl) methanesulfonamide] here?
The IC50 was 1000 to 10000 nM.

And the inhibition at 1 µM (FAAH)?
The inhibition at 1 µM was 0 to 25%.

What about the IC50 (MAGL) of the same molecule?
Its IC50 is 100 to 1000 nM.

What about the inhibition at 1 µM (MAGL) of the same molecule?
The inhibition at 1 µM was no less than 75%.

With CC(=O)Nc1ccn(C(=O)N2CCC3(CCCN3Cc3ccc(C(F)(F)F)cc3N3CCN(C(C)=O)CC3)CC2)n1 [Example 22, N-(1-(1-(2-(4-acetylpiperazin-1-yl)-4-(trifluoromethyl)benzyl)-1,8-diazaspiro[4.5]decane-8-carbonyl)-1H-pyrazol-3-yl)acetamide] as the molecule, how does the IC50 (FAAH) read?
The IC50 was 1000 to 10000 nM.

And the inhibition at 1 µM (FAAH)?
Its inhibition at 1 µM is 0 to 25%.

And the IC50 (MAGL)?
The IC50 was 100 to 1000 nM.

And the inhibition at 1 µM (MAGL)?
Its inhibition at 1 µM is no less than 75%.

CS(=O)(=O)Nc1ccn(C(=O)N2CCC3(CCCN3Cc3ccc(Cl)cc3N3C[C@H]4CC[C@@H](C3)O4)CC2)n1 [Example 139, N-(1-(1-(2-((1R,5S)-8-oxa-3-azabicyclo[3.2.1]octan-3-yl)-4-chlorobenzyl)-1,8-diazaspiro[4.5]decane-8-carbonyl)-1H-pyrazol-3-yl) methanesulfonamide] was tested. Which IC50 (FAAH) did it give?
The IC50 was 1000 to 10000 nM.

What about the inhibition at 1 µM (FAAH) of the same molecule?
The inhibition at 1 µM was 0 to 25%.

What about the IC50 (MAGL) of the same molecule?
Its IC50 is 100 to 1000 nM.

And the inhibition at 1 µM (MAGL)?
The inhibition at 1 µM was no less than 75%.

CS(=O)(=O)Nc1ccn(C(=O)N2CCC3(CCCN3Cc3ccc(Cl)cc3N3CCCC3)CC2)n1 [Example 131, N-(1-(1-(4-chloro-2-(pyrrolidin-1-yl)benzyl)-1,8-diazaspiro[4.5]decane-8-carbonyl)-1H-pyrazol-3-yl)methanesulfonamide] was tested. Which inhibition at 1 µM (FAAH) did it give?
Its inhibition at 1 µM is 0 to 25%.

And the inhibition at 1 µM (MAGL)?
The inhibition at 1 µM was 50 to 75%.

Which inhibition at 1 µM (FAAH) does the source give for CC(=O)Nc1ccn(C(=O)N2CCC3(CCCN3Cc3ccc(C(=O)O)c(C(F)(F)F)c3)CC2)n1 [Example 110, 4-((8-(3-acetamido-1H-pyrazole-1-carbonyl)-1,8-diazaspiro[4.5]decan-1-yl)methyl)-2-(trifluoromethyl)benzoic Acid] here?
Its inhibition at 1 µM is 0 to 25%.

And the inhibition at 1 µM (MAGL)?
Its inhibition at 1 µM is no less than 75%.

Which inhibition at 1 µM (FAAH) does the source give for CS(=O)(=O)Nc1ccn(C(=O)N2CCC3(CCCN3Cc3cccc(N4CCOCC4)c3Cl)CC2)n1 [Example 143, N-(1-(1-(2-chloro-3-morpholinobenzyl)-1,8-diazaspiro[4.5]decane-8-carbonyl)-1H-pyrazol-3-yl) methanesulfonamide] here?
Its inhibition at 1 µM is 0 to 25%.

And the inhibition at 1 µM (MAGL)?
Its inhibition at 1 µM is 50 to 75%.

With CS(=O)(=O)Nc1ccn(C(=O)N2CCN(Cc3ccc(Cl)cc3N3CC4CCC(C3)O4)CC2)n1 [Example 256, N-(1-(4-(2-(8-oxa-3-azabicyclo[3.2.1]octan-3-yl)-4-chlorobenzyl)piperazine-1-carbonyl)-1H-pyrazol-3-yl) methanesulfonamide] as the molecule, how does the IC50 (FAAH) read?
The IC50 was 1000 to 10000 nM.

And the inhibition at 1 µM (FAAH)?
Its inhibition at 1 µM is 0 to 25%.

And the IC50 (MAGL)?
Its IC50 is no more than 100 nM.

What about the inhibition at 1 µM (MAGL) of the same molecule?
Its inhibition at 1 µM is no less than 75%.

CS(=O)(=O)Nc1ccn(C(=O)N2CCN(Cc3cc(N4CCOCC4)cc(C(F)(F)F)c3)CC2)n1 [Example 155, N-(1-(4-(3-morpholino-5-(trifluoromethyl)benzyl)piperazine-1-carbonyl)-1H-pyrazol-3-yl) methanesulfonamide] was tested. Which inhibition at 1 µM (FAAH) did it give?
The inhibition at 1 µM was 0 to 25%.

And the inhibition at 1 µM (MAGL)?
Its inhibition at 1 µM is no less than 75%.

With CS(=O)(=O)Nc1ccn(C(=O)N2CCC3(CCCN3Cc3ccc(C(F)(F)F)cc3N3CCN(C4CC4)CC3)CC2)n1 [Example 239, N-(1-(1-(2-(4-cyclopropylpiperazin-1-yl)-4-(trifluoromethyl)benzyl)-1,8-diazaspiro[4.5]decane-8-carbonyl)-1H-pyrazol-3-yl) methanesulfonamide] as the molecule, how does the inhibition at 1 µM (FAAH) read?
Its inhibition at 1 µM is 0 to 25%.

And the inhibition at 1 µM (MAGL)?
Its inhibition at 1 µM is 0 to 25%.

How did the IC50 (FAAH) turn out when CC(=O)Nc1ccn(C(=O)N2CCC3(CCCN3Cc3ccc(N4CCOCC4)c(Cl)c3)CC2)n1 [Example 99, N-(1-(1-(3-chloro-4-morpholinobenzyl)-1,8-diazaspiro[4.5]decane-8-carbonyl)-1H-pyrazol-3-yl)acetamide] was run?
Its IC50 is 1000 to 10000 nM.

What about the inhibition at 1 µM (FAAH) of the same molecule?
The inhibition at 1 µM was 0 to 25%.

And the IC50 (MAGL)?
The IC50 was 100 to 1000 nM.

And the inhibition at 1 µM (MAGL)?
The inhibition at 1 µM was no less than 75%.

Which results are given for CS(=O)(=O)Nc1ccn(C(=O)N2CCN(Cc3cccc(C(F)(F)F)c3N3CCC(F)CC3)CC2)n1 [Example 273, N-(1-(4-(2-(4-fluoropiperidin-1-yl)-3-(trifluoromethyl)benzyl)piperazine-1-carbonyl)-1H-pyrazol-3-yl) methanesulfonamide]?
inhibition at 1 µM (FAAH): 0 to 25%; inhibition at 1 µM (MAGL): ≥ 75%

Which inhibition at 1 µM (FAAH) does the source give for CC(=O)Nc1ccn(C(=O)N2CCN(Cc3ccc(C(F)(F)F)cc3OC3CCS(=O)(=O)CC3)CC2)n1 [Example 77, N-(1-(4-(2-((1,1-dioxidotetrahydro-2H-thiopyran-4-yl)oxy)-4-(trifluoromethyl)benzyl)piperazine-1-carbonyl)-1H-pyrazol-3-yl)acetamide] here?
Its inhibition at 1 µM is 0 to 25%.

What about the inhibition at 1 µM (MAGL) of the same molecule?
Its inhibition at 1 µM is no less than 75%.

Cn1ncc2cc(CN3CCN(C(=O)n4ccc(NS(C)(=O)=O)n4)CC3)ccc21 [Example 184, N-(1-(4-((1-methyl-1H-indazol-5-yl)methyl)piperazine-1-carbonyl)-1H-pyrazol-3-yl) methanesulfonamide] was tested. Which inhibition at 1 µM (FAAH) did it give?
Its inhibition at 1 µM is 0 to 25%.

And the inhibition at 1 µM (MAGL)?
Its inhibition at 1 µM is 25 to 50%.

For CC(=O)Nc1ccn(C(=O)N2CCN(Cc3ccc(C#N)cc3-c3nnn[nH]3)CC2)n1 [Example 115, N-(1-(4-(4-cyano-2-(1H-tetrazol-5-yl)benzyl)piperazine-1-carbonyl)-1H-pyrazol-3-yl)acetamide], which IC50 (FAAH) is on record?
The IC50 was 1000 to 10000 nM.

What about the inhibition at 1 µM (FAAH) of the same molecule?
Its inhibition at 1 µM is 0 to 25%.

And the IC50 (MAGL)?
The IC50 was 100 to 1000 nM.

And the inhibition at 1 µM (MAGL)?
Its inhibition at 1 µM is no less than 75%.

CC(=O)Nc1ccn(C(=O)N2CCC3(CCCN3Cc3ccc(C(F)(F)F)c(Cl)c3)CC2)n1 [Example 24, N-(1-(1-(3-chloro-4-(trifluoromethyl)benzyl)-1,8-diazaspiro[4.5]decane-8-carbonyl)-1H-pyrazol-3-yl)acetamide] was tested. Which IC50 (FAAH) did it give?
Its IC50 is 1000 to 10000 nM.

And the inhibition at 1 µM (FAAH)?
Its inhibition at 1 µM is 0 to 25%.

And the IC50 (MAGL)?
The IC50 was no more than 100 nM.

And the inhibition at 1 µM (MAGL)?
Its inhibition at 1 µM is no less than 75%.

For CC(=O)N(C)c1ccn(C(=O)N2CCC3(CCCN3Cc3ccc(C(F)(F)F)cc3N3CCCC3)CC2)n1 [Example 68, N-methyl-N-(1-(1-(2-(pyrrolidin-1-yl)-4-(trifluoromethyl)benzyl)-1,8-diazaspiro[4.5]decane-8-carbonyl)-1H-pyrazol-3-yl)acetamide], which inhibition at 1 µM (FAAH) is on record?
The inhibition at 1 µM was 0 to 25%.

What about the inhibition at 1 µM (MAGL) of the same molecule?
The inhibition at 1 µM was 50 to 75%.
